Values quoted from earlier work as cited in US20110130710A1, “TREATMENT OF ABNORMAL OR EXCESSIVE SCARS” (priority 2007, published 2011).

B1: keratinocyte growth factor (protein, UniProt P21781 32-194, looked up)
Fibroblast growth factor 7: CNDMTPEQMATNVNCSSPERHTRSYDYMEGGDIRVRRLFCRTQWYLRIDKRGKVKGTQEMKNNYNIMEIRTVAVGIVAIKGVESEFYLAMNKEGKLYAKKECNEDCNFKELILENHYNTYASAKWTHNGGEMFVALNQKGIPVRGKKTKKEQKTAHFLPMAIT
notes: growth factor useful for wound healing

Assays:
[1] = applied topically
epithelial tissue = settings: about 50 μl, topical application

| Molecule | effective dose of PDGF [1] | concentration of KGF that may be effective for wound healing (epithelial tissue) |
| --- | --- | --- |
| platelet derived growth factor [PDGF] | ≥ 5 ng/mm^2 | – |
| B1 | – | about 5 μg/ml |
